Measurements from US10221163B2 (priority 2015, dated 2019).
Like-named read-outs stand apart in the source and are kept apart here.

Assays:
IMP-1 = IMP-1 (Serratia marcescens, UniProt P52699); assay: biochemical; assay type: biochemical; details: fluorescence assay, CCF2-FA substrate, 2 pM enzyme, 2 hours at 25° C.; read-out: IMP-1 IC50
Procedure, shortened: (§1)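 Test compound, enzyme and the FRET cephalosporin substrate CCF2-FA are incubated together for 2 hours at 25° C. Cleavage is followed by fluorescence, and IC50 values are derived from semi-logarithmic inhibition curves fitted with a 4-parameter model.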

NDM-1 = NDM-1 (Klebsiella pneumoniae, UniProt C7C422); assay: biochemical; assay type: biochemical; details: fluorescence assay, CCF2-FA substrate, 1 pM enzyme, 2 hours at 25° C.; read-out: NDM-1 IC50
Procedure, shortened: as §1

VIM-1 = VIM-1 (Pseudomonas aeruginosa (strain ATCC 15692 / DSM 22644 / CIP 104116 / JCM 14847 / LMG 12228 / 1C / PRS 101 / PAO1), UniProt A0A0F7KYQ8); assay: biochemical; details: CCF2-FA substrate, 30 pM enzyme, 2 hours at 25° C.
Procedure, shortened: as §1

[1] = test system: Pseudomonas aeruginosa efflux+ (MB9798), IMP-1; assay type: cell-based; details: concentration restoring susceptibility to imipenem at 2 μg/mL in the presence of a class A, C, D serine β-lactamase inhibitor closely related to relebactam
Procedure, shortened: (§2)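 Microbroth MIC tests in PAO1-background strains with fixed imipenem and/or ceftazidime, usually at the CLSI breakpoint, plus fixed class A/C β-lactamase inhibitor against AmpC. MBL inhibitor titrated; concentration restoring susceptibility recorded and compared as fold difference between efflux+ MB9798 and efflux− MB9799.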

[2] = test system: Pseudomonas aeruginosa efflux− (MB9799), IMP-1; assay type: cell-based; details: concentration restoring susceptibility to imipenem at 2 μg/mL in the presence of a class A, C, D serine β-lactamase inhibitor closely related to relebactam
Procedure, shortened: as §2

[3] = test system: Escherichia coli expressing NDM-1 (CLB30005, CLB30016); assay type: cell-based; details: with imipenem 1 μg/ml; 95% inhibition of bacterial growth
Procedure, shortened: (§3)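 Imipenem 1 μg/ml + inhibitor; MBL-expressing clinical strains in 1.1×CAMHB, inoculum from saline suspension diluted 1:100; 35° C, 22–24 h; absorbance read-out.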

[4] = test system: Serratia marcescens expressing IMP-1 (CL5741); assay type: cell-based; details: with imipenem 1 μg/ml; 95% inhibition of bacterial growth
Procedure, shortened: as §3

[5] = test system: Klebsiella pneumoniae expressing VIM-1 (IHMA599644); assay type: cell-based; details: with imipenem 1 μg/ml; 95% inhibition of bacterial growth
Procedure, shortened: as §3

[6] = test system: Pseudomonas aeruginosa MB9798 vs MB9799; details: ratio MITC95 PA_9798/MITC95 PA_9799
Procedure, shortened: as §2

[7] = fluorescence assay, read-out: VIM-1 IC50

Sequence of IMP-1 (P52699 whole entry, looked up, species assumed): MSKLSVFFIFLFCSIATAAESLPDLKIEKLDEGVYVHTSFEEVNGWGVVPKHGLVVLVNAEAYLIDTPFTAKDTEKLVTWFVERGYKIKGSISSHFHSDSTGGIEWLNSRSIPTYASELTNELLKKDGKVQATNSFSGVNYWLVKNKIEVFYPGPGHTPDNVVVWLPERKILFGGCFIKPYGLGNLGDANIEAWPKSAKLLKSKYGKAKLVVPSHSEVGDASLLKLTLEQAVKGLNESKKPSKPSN
Sequence of NDM-1 (C7C422 whole entry, looked up, species assumed): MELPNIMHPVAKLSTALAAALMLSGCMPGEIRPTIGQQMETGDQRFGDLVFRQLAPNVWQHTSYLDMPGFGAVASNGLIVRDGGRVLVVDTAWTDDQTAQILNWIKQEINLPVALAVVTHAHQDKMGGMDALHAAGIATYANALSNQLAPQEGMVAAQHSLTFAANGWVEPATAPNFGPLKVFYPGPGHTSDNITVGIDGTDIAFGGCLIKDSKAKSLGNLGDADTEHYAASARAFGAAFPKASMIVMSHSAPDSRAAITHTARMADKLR

| Structure (SMILES) | IC50 (IMP-1) [nM] | IC50 (NDM-1) [nM] | IC50 (VIM-1; [7]) [nM] | P. aeruginosa expressing IMP-1, efflux + (MB9798) MITC95 [1] [µM] | P. aeruginosa expressing IMP-1, efflux − (MB9799) MITC95 [2] [µM] | Escherichia coli expressing NDM-1 (CLB30016) MITC95 [3] [µM] | Serratia marcescens expressing IMP-1 (CL5741) MITC95 [4] [µM] | Klebsiella pneumoniae expressing VIM-1 (IHMA599644) MITC95 [5] [µM] | Efflux ratio [6] | IC50 (VIM-1; VIM-1 IC50, fluorescence assay) [nM] |
| --- | --- | --- | --- | --- | --- | --- | --- | --- | --- | --- |
| NCCNS(=O)(=O)c1ccc(-c2cc(F)cc3[nH]c(N)nc23)c(-c2nnn[nH]2)c1S(N)(=O)=O [Example 180, 4-(2-amino-6-fluoro-1H-benzo[d]imidazol-4-yl)-N^1-(2-aminoethyl)-3-(1H-tetrazol-5-yl)benzene-1,2-disulfonamide] | 0.387 | 0.0472 | 0.161 | 0.3906 | 0.7813 | 0.3906 | 0.7813 | 1.563 | 0.50 | – |
| NCCCNS(=O)(=O)c1ccc(-c2cccc3[nH]c(N)nc23)c(-c2nn[nH]n2)c1S(N)(=O)=O [Example 182, 4-(2-amino-1H-benzo[d]imidazol-4-yl)-N1-(3-aminopropyl)-3-(2H-tetrazol-5-yl)benzene-1,2-disulfonamide] | 0.453 | 0.0393 | – | 0.3438 | 0.4271 | 0.2578 | 0.5573 | 0.6875 | 0.80 | 0.0904 |
| Cn1c(N)nc2c(-c3ccc(S(=O)(=O)NCCCN)c(S(N)(=O)=O)c3-c3nn[nH]n3)cccc21 [Example 183, 4-(2-amino-1-methyl-1H-benzo[d]imidazol-4-yl)-N^1-(3-aminopropyl)-3-(2H-tetrazol-5-yl)benzene-1,2-disulfonamide] | 0.338 | 0.0539 | 0.11 | 0.7813 | 0.7813 | 0.3906 | 0.7813 | 0.7813 | 1.00 | – |
| C[C@H](N)CNS(=O)(=O)c1ccc(-c2cccc3[nH]c(N)nc23)c(-c2nn[nH]n2)c1S(N)(=O)=O [Example 184, 4-(2-amino-1H-benzo[d]imidazol-4-yl)-N1-((S)-2-aminopropyl)-3-(2H-tetrazol-5-yl)benzene-1,2-disulfonamide] | 0.673 | 0.0347 | 0.189 | 0.7813 | 0.7813 | 0.3906 | 0.7813 | 0.7813 | 1.00 | – |
| C[C@@H](N)CNS(=O)(=O)c1ccc(-c2cccc3[nH]c(N)nc23)c(-c2nn[nH]n2)c1S(N)(=O)=O [Example 185, 4-(2-amino-1H-benzo[d]imidazol-4-yl)-N1-((R)-2-aminopropyl)-3-(2H-tetrazol-5-yl)benzene-1,2-disulfonamide] | 0.524 | 0.0476 | 0.19 | 0.3844 | 0.5906 | 0.2135 | 0.7688 | 1.025 | 0.65 | – |
| C[C@@H](CN)NS(=O)(=O)c1ccc(-c2cccc3[nH]c(N)nc23)c(-c2nn[nH]n2)c1S(N)(=O)=O [Example 186] | 4.09 | 0.366 | – | 1.563 | 0.7813 | 0.7813 | 1.563 | 1.563 | 2.00 | 0.901 |
| C[C@H](CN)NS(=O)(=O)c1ccc(-c2cccc3[nH]c(N)nc23)c(-c2nn[nH]n2)c1S(N)(=O)=O [Example 187, 4-(2-amino-1H-benzo[d]imidazol-4-yl)-N^1—((R)-1-aminopropan-2-yl)-3-(2H-tetrazol-5-yl)benzene-1,2-disulfonamide] | 0.23 | 0.0212 | – | 0.3906 | 0.7813 | 0.5859 | 0.7813 | 1.172 | 0.50 | 0.0982 |
| NC(=O)[C@H](N)CNS(=O)(=O)c1ccc(-c2cccc3[nH]c(N)nc23)c(-c2nn[nH]n2)c1S(N)(=O)=O [Example 188, (2R)-2-amino-3-(4-(2-amino-1H-benzo[d]imidazol-4-yl)-2-sulfamoyl-3-(2H-tetrazol-5-yl)phenylsulfonamido)propanamide] | 0.613 | 0.0756 | 0.213 | 0.7813 | 1.563 | 1.563 | 1.563 | 3.125 | 0.50 | – |
| NC(=O)[C@@H](N)CNS(=O)(=O)c1ccc(-c2cccc3[nH]c(N)nc23)c(-c2nn[nH]n2)c1S(N)(=O)=O [Example 189, (2S)-2-amino-3-(4-(2-amino-1H-benzo[d]imidazol-4-yl)-2-sulfamoyl-3-(2H-tetrazol-5-yl)phenylsulfonamido)propanamide] | 0.615 | 0.0718 | 0.216 | 0.7813 | 1.563 | 0.7813 | 1.563 | 3.125 | 0.50 | – |
| Nc1nc2c(-c3ccc(S(=O)(=O)NC[C@@H](N)CO)c(S(N)(=O)=O)c3-c3nn[nH]n3)cccc2[nH]1 [Example 190, 4-(2-amino-1H-benzo[d]imidazol-4-yl)-N1-((R)-2-amino-3-hydroxypropyl)-3-(2H-tetrazol-5-yl)benzene-1,2-disulfonamide] | 0.624 | 0.059 | 0.281 | 0.3906 | 0.7813 | 0.3906 | 0.3906 | 0.7813 | 0.50 | – |
| Nc1nc2c(-c3ccc(S(=O)(=O)NC[C@H](N)CO)c(S(N)(=O)=O)c3-c3nn[nH]n3)cccc2[nH]1 [Example 191, 4-(2-amino-1H-benzo[d]imidazol-4-yl)-N^1—((S)-2-amino-3-hydroxypropyl)-3-(2H-tetrazol-5-yl)benzene-1,2-disulfonamide] | 0.433 | 0.0469 | 0.173 | 0.4453 | 0.4453 | 0.25 | 0.8906 | 0.8906 | 1.00 | – |
| NS(=O)(=O)c1c(S(=O)(=O)N[C@@H]2CCNC2)ccc(-c2cccc3[nH]cnc23)c1-c1nn[nH]n1 [Example 193, 4-(1H-benzo[d]imidazol-4-yl)-N1-((R)-pyrrolidin-3-yl)-3-(2H-tetrazol-5-yl)benzene-1,2-disulfonamide] | 0.211 | 0.0392 | 0.113 | 0.7813 | 0.7813 | 1.563 | 1.563 | 2.344 | 1.00 | – |
